Patent US20240000872A1, “NOVEL BACTERIOPHAGE THAT LYSES ACINETOBACTER GENUS BACTERIA HAVING RESISTANCE TO ANTIBIOTICS” (priority 2020, published 2024)

Tested on: Acinetobacter baumannii strains
Experiment: Antibiotic susceptibility test (CLSI disk diffusion test method, read per CLSI 2016)
Assay type: cell-based
Parameters: antibiotic susceptibility test value / susceptibility test value (number given before S/I/R) / antibiotic susceptibility value: unit not given here
Experimental: (§1) Strain identification was performed using a kit such as AT 32 GN system (bioMérieux, Marcy l'Etoile, France). […] In Table 2 below, S, I, and R are the results obtained by evaluating susceptibility to the antibacterial agents, in which ‘S’ means susceptible, ‘I’ means intermediate, and ‘R’ means resistant.
as §1, with “as ATB” for “as AT”, “system (bioMédrieux,” for “system (bioMérieux,”, “Table 6” for “Table 2”
as §1, with “as ATB” for “as AT”, “Table 10” for “Table 2”, “susceptible, T” for “susceptible, ‘I’”

gentamicin
I: antibiotic susceptibility class (host strain YMC14/01/R921) | antibiotic susceptibility class (host strain YMC14/02/R1860)
1: antibiotic susceptibility test value (host strain YMC14/01/R257)
2: antibiotic susceptibility test value (host strain YMC14/01/R560) | antibiotic susceptibility test value (host strain YMC14/02/R2599) | antibiotic susceptibility test value (host strain YMC14/03/P471) | antibiotic susceptibility test value (host strain YMC14/03/R618) | antibiotic susceptibility test value (host strain YMC14/04/R1078) | antibiotic susceptibility test value (host strain YMC14/04/R1080)
8: antibiotic susceptibility test value (host strain YMC14/01/R921) | antibiotic susceptibility test value (host strain YMC14/02/R1860)
R: antibiotic susceptibility class (host strain YMC14/01/C29) | antibiotic susceptibility class (host strain YMC14/01/IP122) | antibiotic susceptibility class (host strain YMC14/01/L8) | antibiotic susceptibility class (host strain YMC14/01/P31) | antibiotic susceptibility class (host strain YMC14/01/P117) | antibiotic susceptibility class (host strain YMC14/01/P224) | antibiotic susceptibility class (host strain YMC14/01/P727) | antibiotic susceptibility class (host strain YMC14/01/P728) | antibiotic susceptibility class (host strain YMC14/01/R130) | antibiotic susceptibility class (host strain YMC14/01/R160) | antibiotic susceptibility class (host strain YMC14/01/R198) | antibiotic susceptibility class (host strain YMC14/01/R270) | antibiotic susceptibility class (host strain YMC14/01/R324) | antibiotic susceptibility class (host strain YMC14/01/R443) | antibiotic susceptibility class (host strain YMC14/01/R451) | antibiotic susceptibility class (host strain YMC14/01/R617) | antibiotic susceptibility class (host strain YMC14/01/R671) | antibiotic susceptibility class (host strain YMC14/01/R732) | antibiotic susceptibility class (host strain YMC14/01/R767) | antibiotic susceptibility class (host strain YMC14/01/R904) | antibiotic susceptibility class (host strain YMC14/01/R905) | antibiotic susceptibility class (host strain YMC14/01/R941) | antibiotic susceptibility class (host strain YMC14/01/R958) | antibiotic susceptibility class (host strain YMC14/01/R1006) | antibiotic susceptibility class (host strain YMC14/01/R1199) | antibiotic susceptibility class (host strain YMC14/01/R1659) | antibiotic susceptibility class (host strain YMC14/01/R1722) | antibiotic susceptibility class (host strain YMC14/01/R1752) | antibiotic susceptibility class (host strain YMC14/01/R2429) | antibiotic susceptibility class (host strain YMC14/01/R2572) | antibiotic susceptibility class (host strain YMC14/01/R2855) | antibiotic susceptibility class (host strain YMC14/01/R2945) | antibiotic susceptibility class (host strain YMC14/01/R3007) | antibiotic susceptibility class (host strain YMC14/01/R3129) | antibiotic susceptibility class (host strain YMC14/01/R3317) | antibiotic susceptibility class (host strain YMC14/01/R3474) | antibiotic susceptibility class (host strain YMC14/01/R3574) | antibiotic susceptibility class (host strain YMC14/01/U313) | antibiotic susceptibility class (host strain YMC14/01/U318) | antibiotic susceptibility class (host strain YMC14/02/L18) | antibiotic susceptibility class (host strain YMC14/02/P47) | antibiotic susceptibility class (host strain YMC14/02/R2417) | antibiotic susceptibility class (host strain YMC14/02/R2668) | antibiotic susceptibility class (host strain YMC14/02/R2758) | antibiotic susceptibility class (host strain YMC14/02/R2781) | antibiotic susceptibility class (host strain YMC14/02/R3106) | antibiotic susceptibility class (host strain YMC14/02/R3419) | antibiotic susceptibility class (host strain YMC14/02/U1607) | antibiotic susceptibility class (host strain YMC14/03/L9) | antibiotic susceptibility class (host strain YMC14/03/R122) | antibiotic susceptibility class (host strain YMC14/03/R217) | antibiotic susceptibility class (host strain YMC14/03/R380) | antibiotic susceptibility class (host strain YMC14/03/R2144) | antibiotic susceptibility class (host strain YMC14/03/U4616) | antibiotic susceptibility S/I/R (host strain YMC14/06/R2359) | susceptibility category (S/I/R) (host strain YMC14/06/R2359) | antibiotic susceptibility S/I/R (host strain YMC14/08/R1169) | susceptibility category (S/I/R) (host strain YMC14/08/R1169) | antibiotic susceptibility S/I/R (host strain YMC14/08/T90) | susceptibility category (S/I/R) (host strain YMC14/08/T90) | antibiotic susceptibility S/I/R (host strain YMC15/02/R436) | susceptibility category (S/I/R) (host strain YMC15/02/R436) | antibiotic susceptibility S/I/R (host strain YMC15/02/T28) | susceptibility category (S/I/R) (host strain YMC15/02/T28) | antibiotic susceptibility S/I/R (host strain YMC15/03/R1604) | susceptibility category (S/I/R) (host strain YMC15/03/R1604) | antibiotic susceptibility S/I/R (host strain YMC15/09/R1869) | susceptibility category (S/I/R) (host strain YMC15/09/R1869) | antibiotic susceptibility S/I/R (host strain YMC16/01/P11) | susceptibility category (S/I/R) (host strain YMC16/01/P11) | antibiotic susceptibility S/I/R (host strain YMC16/01/R123) | susceptibility category (S/I/R) (host strain YMC16/01/R123) | antibiotic susceptibility S/I/R (host strain YMC16/01/R198) | susceptibility category (S/I/R) (host strain YMC16/01/R198) | antibiotic susceptibility S/I/R (host strain YMC16/01/R353)
16: antibiotic susceptibility test value (host strain YMC14/01/C29) | antibiotic susceptibility test value (host strain YMC14/01/IP122) | antibiotic susceptibility test value (host strain YMC14/01/L8) | antibiotic susceptibility test value (host strain YMC14/01/P31) | antibiotic susceptibility test value (host strain YMC14/01/P117) | antibiotic susceptibility test value (host strain YMC14/01/P224) | antibiotic susceptibility test value (host strain YMC14/01/P727) | antibiotic susceptibility test value (host strain YMC14/01/P728) | antibiotic susceptibility test value (host strain YMC14/01/R130) | antibiotic susceptibility test value (host strain YMC14/01/R160) | antibiotic susceptibility test value (host strain YMC14/01/R198) | antibiotic susceptibility test value (host strain YMC14/01/R270) | antibiotic susceptibility test value (host strain YMC14/01/R324) | antibiotic susceptibility test value (host strain YMC14/01/R443) | antibiotic susceptibility test value (host strain YMC14/01/R451) | antibiotic susceptibility test value (host strain YMC14/01/R617) | antibiotic susceptibility test value (host strain YMC14/01/R671) | antibiotic susceptibility test value (host strain YMC14/01/R732) | antibiotic susceptibility test value (host strain YMC14/01/R767) | antibiotic susceptibility test value (host strain YMC14/01/R904) | antibiotic susceptibility test value (host strain YMC14/01/R905) | antibiotic susceptibility test value (host strain YMC14/01/R941) | antibiotic susceptibility test value (host strain YMC14/01/R958) | antibiotic susceptibility test value (host strain YMC14/01/R1006) | antibiotic susceptibility test value (host strain YMC14/01/R1199) | antibiotic susceptibility test value (host strain YMC14/01/R1659) | antibiotic susceptibility test value (host strain YMC14/01/R1722) | antibiotic susceptibility test value (host strain YMC14/01/R1752) | antibiotic susceptibility test value (host strain YMC14/01/R2429) | antibiotic susceptibility test value (host strain YMC14/01/R2572) | antibiotic susceptibility test value (host strain YMC14/01/R2855) | antibiotic susceptibility test value (host strain YMC14/01/R2945) | antibiotic susceptibility test value (host strain YMC14/01/R3007) | antibiotic susceptibility test value (host strain YMC14/01/R3129) | antibiotic susceptibility test value (host strain YMC14/01/R3317) | antibiotic susceptibility test value (host strain YMC14/01/R3474) | antibiotic susceptibility test value (host strain YMC14/01/R3574) | antibiotic susceptibility test value (host strain YMC14/01/U313) | antibiotic susceptibility test value (host strain YMC14/01/U318) | antibiotic susceptibility test value (host strain YMC14/02/L18) | antibiotic susceptibility test value (host strain YMC14/02/P47) | antibiotic susceptibility test value (host strain YMC14/02/R2417) | antibiotic susceptibility test value (host strain YMC14/02/R2668) | antibiotic susceptibility test value (host strain YMC14/02/R2758) | antibiotic susceptibility test value (host strain YMC14/02/R2781) | antibiotic susceptibility test value (host strain YMC14/02/R3106) | antibiotic susceptibility test value (host strain YMC14/02/R3419) | antibiotic susceptibility test value (host strain YMC14/02/U1607) | antibiotic susceptibility test value (host strain YMC14/03/L9) | antibiotic susceptibility test value (host strain YMC14/03/R122) | antibiotic susceptibility test value (host strain YMC14/03/R217) | antibiotic susceptibility test value (host strain YMC14/03/R380) | antibiotic susceptibility test value (host strain YMC14/03/R2144) | antibiotic susceptibility test value (host strain YMC14/03/U4616) | antibiotic susceptibility value (host strain YMC14/06/R2359) | susceptibility test value (number given before S/I/R) (host strain YMC14/06/R2359) | antibiotic susceptibility value (host strain YMC14/08/R1169) | susceptibility test value (number given before S/I/R) (host strain YMC14/08/R1169) | antibiotic susceptibility value (host strain YMC14/08/T90) | susceptibility test value (number given before S/I/R) (host strain YMC14/08/T90) | antibiotic susceptibility value (host strain YMC15/02/R436) | susceptibility test value (number given before S/I/R) (host strain YMC15/02/R436) | antibiotic susceptibility value (host strain YMC15/02/T28) | susceptibility test value (number given before S/I/R) (host strain YMC15/02/T28) | antibiotic susceptibility value (host strain YMC15/03/R1604) | susceptibility test value (number given before S/I/R) (host strain YMC15/03/R1604) | antibiotic susceptibility value (host strain YMC15/09/R1869) | susceptibility test value (number given before S/I/R) (host strain YMC15/09/R1869) | antibiotic susceptibility value (host strain YMC16/01/P11) | susceptibility test value (number given before S/I/R) (host strain YMC16/01/P11) | antibiotic susceptibility value (host strain YMC16/01/R123) | susceptibility test value (number given before S/I/R) (host strain YMC16/01/R123) | antibiotic susceptibility value (host strain YMC16/01/R198) | susceptibility test value (number given before S/I/R) (host strain YMC16/01/R198)
S: antibiotic susceptibility class (host strain YMC14/01/R257) | antibiotic susceptibility class (host strain YMC14/01/R560) | antibiotic susceptibility class (host strain YMC14/02/R2599) | antibiotic susceptibility class (host strain YMC14/03/P471) | antibiotic susceptibility class (host strain YMC14/03/R618) | antibiotic susceptibility class (host strain YMC14/04/R1078) | antibiotic susceptibility class (host strain YMC14/04/R1080)
